Test results from patent publication US9561238B2, “Pharmaceutical compositions comprising estetrol derivatives for use in cancer therapy” (Donesta Bioscience B. V., priority 2002, dated 2017).

Experiments:
[1] = test system: DMBA-induced mammary tumours; assay: 7,12-dimethyl-benz(a)anthracene (DMBA)-induced tumour model in rats; format: in vivo, rat
Method: In order to further assess the anti-tumour efficacy of the estrogenic substances of the present invention, estetrol was tested in the 7,12-dimethyl-benz(a)anthracene (DMBA)-induced tumour model in rats. This model, originally developed by Huggins et al., 1961 (Nature, 19, 204-207), has been widely used and is a generally accepted model with predictive value for anti-tumour agents in humans.
Eighty-four female Sprague-Dawley rats (Harlan, The Netherlands) were group housed, maintained in a 12-hr light/dark environment, and fed a Soya Free Diet (SDS England) and water ad libitum. Animals were weighed on a weekly basis. One week prior to induction of mammary carcinoma, 12 animals (aged 43 days) were surgically castrated via removal of the ovaries. At the age of 50 days, all animals were administered a single oral dose of 16 mg DMBA to induce tumour development. […]
During the treatment period of 8 weeks, the emergence of palpable tumours and number of tumours were determined weekly. […]

[2] = test system: DMBA-induced mammary tumours; conditions: literature; cited from earlier work
[3] = test system: DMH-induced malignant colon tumours; conditions: previously published; cited from earlier work
[4] = Agonistic models of in vivo estrogenicity (bone resorption, hot flushing, vaginal cornification), previous studies; conditions: for in vivo estrogenicity in preventing bone resorption, prevention of hot flushing and vaginal cornification: 0.125 mg/kg/day EE compared with […] E4; for potency in agonistic models of preventing bone resorption, prevention of hot flushing and vaginal cornification: […] EE compared with 0.5 mg/kg/day E4
human ERα = human ERα (Homo sapiens (Human), UniProt P03372); assay: Competitive steroid binding assay, ERα; conditions: preference for binding to ERα protein over ERβ, from Ki values
[5] = test system: DMH-induced malignant colon tumours; assay: 1,2 dimethylhydrazine (DMH)-induced colon cancer in ovariectomized female rats; format: in vivo, rat; conditions: estetrol orally 0.1 to 3.0 mg/kg/day; necropsy 15 weeks after first DMH
Method: A study is performed to examine the effect of estetrol on 1,2 dimethylhydrazine (DMH)-induced colon cancer in ovariectomized female rats.
DMH-induced cancer development is chosen as a model of “estrogen-suppressed tumours”, because it mimics the human situation of colon carcinomas closely:
One week prior to induction of colon carcinomas, fifty sexually mature female Sprague-Dawley rats, weighing between 150 and 200 gram (Harlan, The Netherlands), are surgically castrated via removal of the ovaries. During the experiment, rats are maintained in separate plastic cages at 12 hour light/dark cycles and allowed free access to food (Purina chow) and water.
Animals are randomly allocated to one of five groups, each consisting of 10 rats, which, starting three days after ovariectomy and ending at autopsy, receive placebo or estetrol treatment during the experiment as follows: • Group 1 animals receiving placebo oral treatment with 3.0 ml/kg/day vehicle (20% wt/vol solution of hydroxypropyl-beta-cyclodextrin in water); • Group 2 animals receiving estetrol orally at a single daily dose of 0.1 mg/kg; • Group 3 animals receiving estetrol orally at a single daily dose of 0.3 mg/kg; • Group 4 animals receiving estetrol orally at a single daily dose of 1.0 mg/kg; • Group 5 animals receiving estetrol orally at a single daily dose of 3.0 mg/kg. […]

human ERα, sequence (P03372 whole entry): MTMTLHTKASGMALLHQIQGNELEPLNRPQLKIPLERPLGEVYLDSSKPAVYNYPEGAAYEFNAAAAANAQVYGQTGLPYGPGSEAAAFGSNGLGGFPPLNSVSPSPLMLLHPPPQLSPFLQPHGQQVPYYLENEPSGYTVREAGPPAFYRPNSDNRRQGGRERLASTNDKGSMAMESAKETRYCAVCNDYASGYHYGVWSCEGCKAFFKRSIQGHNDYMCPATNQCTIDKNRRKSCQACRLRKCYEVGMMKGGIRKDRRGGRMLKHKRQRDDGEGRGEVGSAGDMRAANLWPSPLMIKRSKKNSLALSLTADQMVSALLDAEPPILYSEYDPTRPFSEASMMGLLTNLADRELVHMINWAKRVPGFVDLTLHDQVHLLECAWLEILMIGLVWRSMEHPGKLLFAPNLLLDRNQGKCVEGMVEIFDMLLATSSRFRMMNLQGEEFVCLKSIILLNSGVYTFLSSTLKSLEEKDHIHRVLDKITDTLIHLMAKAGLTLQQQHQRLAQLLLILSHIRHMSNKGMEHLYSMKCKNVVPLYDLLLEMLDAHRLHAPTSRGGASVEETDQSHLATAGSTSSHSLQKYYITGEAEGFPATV

SMILES: CC/C(=C(\c1ccccc1)c1ccc(OCCN(C)C)cc1)c1ccccc1 [tamoxifen]
- development of mammary tumours ([1]; tamoxifen 3 mg/kg/day orally, 8 weeks): inhibiting the development of mammary tumours
- anti-tumour treatment in the DMBA model [2]: effective anti-tumour treatments

SMILES: C[C@]12CC[C@@H]3c4ccc(O)cc4CC[C@H]3[C@@H]1CC[C@@H]2O [E2, 17β-estradiol]
- protection in the DMH model [3]: confers protection

SMILES: C#C[C@]1(O)CC[C@H]2[C@@H]3CCc4cc(O)ccc4[C@H]3CC[C@@]21C [EE, 17α-ethinylestradiol]
- in vivo estrogenicity in preventing bone resorption, prevention of hot flushing and vaginal cornification [4]: equipotency
- potency in agonistic models of preventing bone resorption, prevention of hot flushing and vaginal cornification [4]: equipotency

SMILES: C[C@]12CC[C@@H]3c4ccc(O)cc4CC[C@H]3[C@@H]1[C@@H](O)[C@@H](O)[C@@H]2O [E4, 1,3,5(10)-estratrien-3,15α,16α,17β-tetrol]
- Relative ERα/ERβ preference (human ERα): 400%
- number of malignant tumours [5]: declines as a function of increasing the daily oral estetrol dose
- preventing growth of DMBA-induced tumours, compared with tamoxifen ([1]; E4 […] vs tamoxifen 3 mg/kg/day orally): as effective as tamoxifen
- in vivo estrogenicity in preventing bone resorption, prevention of hot flushing and vaginal cornification [4]: equipotency
- potency in agonistic models of preventing bone resorption, prevention of hot flushing and vaginal cornification [4]: equipotency
